The target in data set [1] is GSK-3α (Homo sapiens, UniProt P49840). Put plainly: ADP-Glo protein kinase assay, GSK-3α. The class given is biochemical. The method, then: (§1) Kinase enzymatic activities were assayed in 384-well plates using the ADP-Glo^TM assay kit, following the recommendations of the manufacturer (Promega, Madison, WI). Controls were performed in appropriate dilutions of dimethyl sulfoxide (DMSO). Kinase activities, measured in the presence of 10 µM ATP, are expressed as percentage of maximal activity, i.e., measured in the absence of inhibitor. In order to determine the half-maximal inhibitory concentration (IC50), the assays were performed in duplicate in the absence or presence of increasing doses of the tested compounds. Data were analyzed using GraphPad PRISM (GraphPad Software, San Diego, CA, USA) software to fit a sigmoïdal curve that allowed determination of the IC50 values. The experimental conditions used for measuring kinase activities are comprehensively described in Ibrahim et al.. Human recombinant ABL1 mutant (T315I) was purchased from Promega (Catalog # V5320) and tested following the recommendations of the manufacturer (Promega, Madison, WI, USA).

Data set [2] deals with CDK5/p25 (Homo sapiens, UniProt Q00535). Put plainly: ADP-Glo protein kinase assay, CDK5/p25. The class given is biochemical. The following applies: 10 µM ATP, normalized to DMSO control, mean n = 2. The procedure: as §1
On the technique in general: ADP-Glo first removes unused ATP, then detects ADP through luciferase.

Data set [3] has as its system K562S (doxorubicin-sensitive K562) chronic myelogenous leukemia cells. In words: MTS cell viability assay, K562S cells. The data set is classed as cell-based, human. The procedure:
K562 (ATCC®, CCL-243, described here as K562S to indicate sensitivity to doxorubicin), a human chronic myelogenous leukemia cell line, was obtained from American Type Culture Collection (Manassas, VA, USA). A doxorubicin-resistant cell line (K562R, also known as K562/Adr) was kindly provided by the IRSET institute (Research Institute for Environmental and Occupational Health, INSERM, University of Rennes 1, France). The cells were maintained at 37 °C and 5% CO2 in Gibco™ 1640 Roswell Park Memorial Institute (RPMI-1640) medium containing 10% fetal bovine serum (FBS) (Life Technologies^TM, Thermo Fisher Scientific, Waltham, MA, USA).
(§2) Cell viability was evaluated with the MTS (3-(4,5-dimethylthiazol-2-yl)-5-(3-carboxymethoxyphenyl)-2-(4-sulfophenyl)-2H-tetrazolium) reduction kit, (CellTiter 96 Aqueous Non-Radioactive Cell Proliferation Assay, Promega, Fitchburg, WI, USA), according to the instructions of the manufacturer. […] Further details on experimental conditions used can be found in Delehouzé et al. 2017 [47].

The target of data set [4] is CDK9/CyclinT (Homo sapiens, UniProt P50750). Put plainly: ADP-Glo protein kinase assay, CDK9/CyclinT. The data set is classed as biochemical. The conditions noted are these: 10 µM ATP, normalized to DMSO control, mean n = 2. The procedure: as §1
The subject of data set [5] is human peripheral blood lymphocytes (hPBLs). Put plainly: MTS cell viability assay, human peripheral blood lymphocytes. The following applies: betulin ≤ 100 µM, 48 h, four healthy donors. The data set is classed as cell-based. The method, then:
Peripheral blood mononuclear cells (PBMCs) were isolated by Ficoll gradient centrifugation from blood buffy coats of healthy donors, provided by the Etablissement Français du Sang (EFS). The research protocol was conducted under French legal guidelines. After separation of monocytes by 1 h adhesion step, non-adherent PBMCs (peripheral blood lymphocytes, PBL) were harvested. PBL were cultured in RPMI 1640 medium (Gibco, Life technologies, Carlsbad, CA, USA) supplemented with 10% decomplemented fetal bovine serum (CVFSVF00–01, Eurobio), penicillin (100 IU/mL), and streptomycin (100 μg/mL) (15140–122, Gibco). All cells were cultured at 37 °C with 5% CO2.
as §2
For orientation: Tetrazolium dyes change colour on reduction, which living cells bring about.

The target in data set [6] is T1, Haspin (Homo sapiens, UniProt Q8TF76).
T1 sequence (Q8TF76 1-798): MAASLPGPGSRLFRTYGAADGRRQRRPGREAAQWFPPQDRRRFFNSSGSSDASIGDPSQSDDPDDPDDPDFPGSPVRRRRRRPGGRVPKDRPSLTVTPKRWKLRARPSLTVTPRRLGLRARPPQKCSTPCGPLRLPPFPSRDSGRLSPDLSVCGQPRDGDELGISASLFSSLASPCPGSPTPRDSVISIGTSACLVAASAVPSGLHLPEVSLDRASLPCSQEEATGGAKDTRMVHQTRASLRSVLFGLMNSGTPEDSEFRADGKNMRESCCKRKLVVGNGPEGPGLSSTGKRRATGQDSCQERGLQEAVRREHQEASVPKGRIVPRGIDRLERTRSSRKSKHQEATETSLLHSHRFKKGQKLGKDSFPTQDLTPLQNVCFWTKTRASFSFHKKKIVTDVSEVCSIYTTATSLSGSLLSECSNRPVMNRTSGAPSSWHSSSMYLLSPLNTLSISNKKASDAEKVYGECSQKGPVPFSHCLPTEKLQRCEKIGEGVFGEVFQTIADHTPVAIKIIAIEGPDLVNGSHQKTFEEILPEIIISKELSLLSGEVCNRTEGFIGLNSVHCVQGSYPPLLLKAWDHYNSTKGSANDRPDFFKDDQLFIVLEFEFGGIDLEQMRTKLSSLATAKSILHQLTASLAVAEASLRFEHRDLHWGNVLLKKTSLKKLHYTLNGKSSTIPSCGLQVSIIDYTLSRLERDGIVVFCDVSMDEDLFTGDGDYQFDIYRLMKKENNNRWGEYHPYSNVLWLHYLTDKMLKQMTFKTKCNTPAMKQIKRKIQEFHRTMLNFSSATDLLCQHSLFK
Put plainly: ADP-Glo protein kinase assay, Haspin. The data set is classed as biochemical. The following applies: 10 µM ATP, normalized to DMSO control, mean n = 2. The method, then:
as §1

In data set [7] the target is NEK6 (Homo sapiens, UniProt Q9HC98). In words: ADP-Glo protein kinase assay, NEK6. The data set is classed as biochemical. The method, then: as §1
Data set [8] concerns K562R (doxorubicin-resistant K562) chronic myelogenous leukemia cells. Put plainly: MTS cell viability assay, K562R cells. The following applies: Homo sapiens, K-562R, 48 h exposure, n = 3. The class given is cell-based.
Setting [9] is: betulin purified from Acacia auriculiformis at 1 µg/mL.
Setting [10] is: betulin purified from Acacia auriculiformis at 10 µg/mL.

We go through 1 molecule from article PMC8347092, “Betulin, a Newly Characterized Compound in Acacia auriculiformis Bark, Is a Multi-Target Protein Kinase Inhibitor” (Molecules, 2021).

Sequence of CDK5/p25 (Q00535 whole entry): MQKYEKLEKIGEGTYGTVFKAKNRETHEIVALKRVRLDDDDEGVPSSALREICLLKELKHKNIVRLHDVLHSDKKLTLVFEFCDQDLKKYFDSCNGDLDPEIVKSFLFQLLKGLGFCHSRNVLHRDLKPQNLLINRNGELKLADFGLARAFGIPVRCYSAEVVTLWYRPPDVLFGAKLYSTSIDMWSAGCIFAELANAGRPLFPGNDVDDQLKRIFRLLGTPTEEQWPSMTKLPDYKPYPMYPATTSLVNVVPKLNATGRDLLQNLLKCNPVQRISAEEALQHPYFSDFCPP
Sequence of CDK5/p25 (Q15078 99-307 partner limits assumed): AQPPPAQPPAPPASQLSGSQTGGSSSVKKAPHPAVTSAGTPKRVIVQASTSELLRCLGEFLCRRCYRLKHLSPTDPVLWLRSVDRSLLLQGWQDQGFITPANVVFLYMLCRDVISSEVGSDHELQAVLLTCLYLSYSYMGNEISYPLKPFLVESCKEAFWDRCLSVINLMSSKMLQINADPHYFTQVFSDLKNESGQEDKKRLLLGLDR
Sequence of CDK9/CyclinT (P50750 whole entry): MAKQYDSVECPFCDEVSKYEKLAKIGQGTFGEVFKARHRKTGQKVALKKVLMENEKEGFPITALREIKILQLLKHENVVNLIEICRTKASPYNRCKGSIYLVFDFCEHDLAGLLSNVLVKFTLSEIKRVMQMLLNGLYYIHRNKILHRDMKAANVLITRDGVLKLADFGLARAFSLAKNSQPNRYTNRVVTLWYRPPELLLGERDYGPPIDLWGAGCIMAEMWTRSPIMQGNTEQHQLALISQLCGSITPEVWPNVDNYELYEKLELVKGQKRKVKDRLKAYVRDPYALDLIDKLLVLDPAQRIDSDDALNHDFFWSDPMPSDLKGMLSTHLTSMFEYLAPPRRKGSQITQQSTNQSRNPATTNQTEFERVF
Sequence of CDK9/CyclinT (O60563 whole entry partner): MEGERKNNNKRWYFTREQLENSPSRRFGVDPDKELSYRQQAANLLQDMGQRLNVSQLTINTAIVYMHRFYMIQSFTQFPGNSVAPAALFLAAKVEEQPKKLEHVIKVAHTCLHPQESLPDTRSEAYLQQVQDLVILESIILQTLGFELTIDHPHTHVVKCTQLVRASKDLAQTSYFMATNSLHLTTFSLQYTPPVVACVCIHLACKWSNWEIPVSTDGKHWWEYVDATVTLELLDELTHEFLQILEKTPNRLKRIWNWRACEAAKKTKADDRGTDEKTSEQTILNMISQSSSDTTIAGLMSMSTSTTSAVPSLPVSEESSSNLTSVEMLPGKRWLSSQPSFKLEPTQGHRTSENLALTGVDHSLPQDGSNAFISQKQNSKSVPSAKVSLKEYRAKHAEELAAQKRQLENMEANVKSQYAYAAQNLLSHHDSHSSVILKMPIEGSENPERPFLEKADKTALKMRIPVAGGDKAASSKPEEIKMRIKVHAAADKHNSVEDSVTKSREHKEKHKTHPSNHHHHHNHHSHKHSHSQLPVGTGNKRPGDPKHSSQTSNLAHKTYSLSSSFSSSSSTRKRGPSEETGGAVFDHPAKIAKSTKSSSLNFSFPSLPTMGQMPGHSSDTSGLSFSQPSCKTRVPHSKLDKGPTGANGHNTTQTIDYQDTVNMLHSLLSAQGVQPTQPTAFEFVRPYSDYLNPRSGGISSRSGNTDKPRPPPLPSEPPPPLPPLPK
Sequence of NEK6 (Q9HC98 whole entry): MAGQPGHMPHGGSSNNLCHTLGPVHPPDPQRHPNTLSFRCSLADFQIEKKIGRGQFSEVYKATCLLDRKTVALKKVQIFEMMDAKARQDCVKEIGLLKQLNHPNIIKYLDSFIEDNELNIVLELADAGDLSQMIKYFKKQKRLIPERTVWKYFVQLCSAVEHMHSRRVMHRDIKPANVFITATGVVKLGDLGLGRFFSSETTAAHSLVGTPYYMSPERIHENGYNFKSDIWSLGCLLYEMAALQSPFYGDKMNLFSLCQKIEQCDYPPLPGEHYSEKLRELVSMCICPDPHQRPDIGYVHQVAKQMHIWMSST
Sequence of GSK-3α (P49840 whole entry): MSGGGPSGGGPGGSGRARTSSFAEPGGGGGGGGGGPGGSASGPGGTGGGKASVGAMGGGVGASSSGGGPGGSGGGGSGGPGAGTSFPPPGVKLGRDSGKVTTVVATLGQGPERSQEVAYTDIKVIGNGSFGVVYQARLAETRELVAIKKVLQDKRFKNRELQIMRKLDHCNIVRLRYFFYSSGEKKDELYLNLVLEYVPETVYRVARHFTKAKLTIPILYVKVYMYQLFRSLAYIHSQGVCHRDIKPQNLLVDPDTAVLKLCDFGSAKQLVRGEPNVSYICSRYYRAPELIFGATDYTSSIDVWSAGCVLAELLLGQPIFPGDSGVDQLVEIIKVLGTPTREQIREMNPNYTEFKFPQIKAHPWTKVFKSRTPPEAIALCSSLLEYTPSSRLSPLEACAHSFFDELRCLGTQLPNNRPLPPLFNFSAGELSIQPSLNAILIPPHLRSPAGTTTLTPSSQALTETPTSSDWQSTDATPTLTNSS

By IC50 is commonly meant the concentration that gives 50% inhibition. Lower therefore signals greater potency in that assay. Take `C=C(C)[C@@H]1CC[C@]2(CO)CC[C@]3(C)[C@H](CC[C@@H]4[C@@]5(C)CC[C@H](O)C(C)(C)[C@@H]5CC[C@]43C)[C@@H]12` [Betulin, 3-lup-20(29)-ene-3β,28-diol]: the IC50 in data set [1] stood at 0.72 µM; in data set [3] (Homo sapiens, K562, 48 h exposure, n = 3) it was 16.5 µM; in data set [7], 3.02 µM; in data set [8], 13.5 µM. Besides, the “% of kinase activity that remained, CDK5/p25” value in data set [2] (setting [9]) is 94%; in data set [2] (setting [10]) it was 99%. Further, the “effects on K562S cell viability when cells co-treated with z-VAD-fmk” value in data set [3] (betulin 1-50 µM with 20 µM z-VAD-fmk (pan-inhibitor of caspases), 48 h) was “not significantly altered”. The “% of kinase activity that remained, CDK9/CyclinT” value in data set [4] (setting [9]) amounted to 88%; in data set [4] (setting [10]), 60%. In addition, the “viability of hPBLs” value in data set [5] is “did not induce a significant decrease”. Further, the “% of kinase activity that remained, Haspin” value in data set [6] (setting [9]) was determined as 72%; in data set [6] (setting [10]) it was 91%.
